# According to patent US9670199B2, “Ergoline derivatives as dopamine receptor modulators” (REGENTS OF THE UNIVERSITY OF MINNESOTA, priority 2012, dated 2017):
# Assays:
# [1] = molecular target: T1, 5-HT2B receptor (Homo sapiens, UniProt P41595); assay: 5-HT2B competitive binding assay against 125I-radiolabeled 2,5-dimethoxy-4-iodoamphetamine (agonist radioligand); details: result in words
# Excerpt: (§1) The biological activity of representative compounds of the invention can be determined using a number of assays that are known.
# [2] = molecular target: T1, 5-HT2B receptor; assay: 5-HT2B functional assay (agonism), HTRF quantitation of IP1 accumulation; format: cell-based; details: for 5-HT2B agonism (type of agonist): result in words
# Excerpt: as §1
# [3] = molecular target: T2, D4 receptor (Homo sapiens, UniProt P21917); assay: D4 functional assay; format: cell-based; details: result in words
# T2 sequence (P21917 1-419): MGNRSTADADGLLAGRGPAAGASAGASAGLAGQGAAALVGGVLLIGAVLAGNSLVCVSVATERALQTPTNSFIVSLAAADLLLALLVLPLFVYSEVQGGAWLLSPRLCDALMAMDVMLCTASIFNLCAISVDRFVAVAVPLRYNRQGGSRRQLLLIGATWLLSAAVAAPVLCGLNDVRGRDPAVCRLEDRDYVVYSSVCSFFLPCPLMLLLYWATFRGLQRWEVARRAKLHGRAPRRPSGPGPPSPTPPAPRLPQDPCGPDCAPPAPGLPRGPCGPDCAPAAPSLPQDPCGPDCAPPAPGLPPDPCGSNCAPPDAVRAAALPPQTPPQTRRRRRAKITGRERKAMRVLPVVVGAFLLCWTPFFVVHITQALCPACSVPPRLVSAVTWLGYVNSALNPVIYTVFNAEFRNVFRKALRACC
# Protocol: (§2) The biological activity of representative compounds of the invention can be determined using a number of assays that are known. For example, 5-HT2B functional assays were performed following the procedure reported by Porter, R. H. P., et al., Br. J. Pharmacol. 1999, 128, 13-20. 5-HT2B binding assays were performed following the procedure reported by Choi, D.-S., et al., FEBS Lett. 1994, 352, 393-399, using an agonist radioligand. D2 and D4 functional assays were performed following the method reported by Jensen, N. H., et al., Neuropsychopharmacology 2007, 33, 2303-2312.
# [4] = molecular target: T1, 5-HT2B receptor; assay: 5-HT2B functional assay, antagonism against serotonin; format: cell-based; details: result in words
# Protocol: as §2
# [5] = molecular target: D2 receptor (Homo sapiens, UniProt P14416); assay: D2 functional assay; format: cell-based
# Protocol: as §2
# [6] = tested on: male rats; assay: Effects on sexual function in rats; format: in vivo, rat; details: gavage
# Excerpt: Effects of Cabergoline on Sexual Function in Rats. […] This can be tested by seeing whether it can potentiate the induction of a conditioned partner preference. For example, a study could be performed where rats take the drug immediately before their first sexual experience with an almond scented female and 4 days later the cabergoline rats are put in an open field with two females, one scented and the other unscented. Males given their first, e.g., 10, copulatory experiences with scented females would show a significant conditioned ejaculatory preference to ejaculate preferentially with the scented female. […] Cabergoline could also be similarly tested on males that have had their ejaculations reduced to near zero by chronic administration of the SSRI fluoxetine. SSRIs are known to induce anorgasmia, and currently there is no treatment for this side effect.
# T1 sequence (P41595 whole entry): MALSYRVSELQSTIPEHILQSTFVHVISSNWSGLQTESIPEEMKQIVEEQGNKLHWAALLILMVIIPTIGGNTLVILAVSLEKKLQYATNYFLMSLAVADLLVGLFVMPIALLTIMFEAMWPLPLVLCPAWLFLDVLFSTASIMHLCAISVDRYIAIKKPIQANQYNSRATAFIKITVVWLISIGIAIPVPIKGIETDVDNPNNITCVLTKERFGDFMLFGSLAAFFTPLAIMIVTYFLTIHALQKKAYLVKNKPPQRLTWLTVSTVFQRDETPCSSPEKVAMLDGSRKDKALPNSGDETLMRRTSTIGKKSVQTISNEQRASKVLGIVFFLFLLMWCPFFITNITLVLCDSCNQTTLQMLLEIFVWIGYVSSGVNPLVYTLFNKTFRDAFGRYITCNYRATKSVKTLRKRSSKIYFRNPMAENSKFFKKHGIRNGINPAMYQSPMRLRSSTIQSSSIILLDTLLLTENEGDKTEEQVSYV
# Sequence of D2 receptor (P14416 whole entry): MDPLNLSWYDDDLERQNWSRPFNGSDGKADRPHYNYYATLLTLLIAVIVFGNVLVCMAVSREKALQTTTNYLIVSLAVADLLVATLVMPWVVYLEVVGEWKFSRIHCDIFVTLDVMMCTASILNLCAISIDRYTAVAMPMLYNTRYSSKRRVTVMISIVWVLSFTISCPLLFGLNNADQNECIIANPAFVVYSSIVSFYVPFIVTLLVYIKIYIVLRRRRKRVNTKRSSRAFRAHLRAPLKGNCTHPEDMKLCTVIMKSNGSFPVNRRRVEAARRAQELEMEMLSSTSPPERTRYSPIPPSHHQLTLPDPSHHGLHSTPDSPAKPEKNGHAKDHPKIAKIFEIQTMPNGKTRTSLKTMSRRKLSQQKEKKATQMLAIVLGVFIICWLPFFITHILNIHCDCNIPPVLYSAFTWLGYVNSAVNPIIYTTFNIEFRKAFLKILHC
smiles,measurement,setting,value
"C=CCN1C[C@H](C(=O)N(CCCN2CCOCC2)C(=O)NCC)C[C@@H]2c3cccc4[nH]cc(c34)C[C@H]21 [Compound 1, (5R,8R,10R)-6-Allyl-N-[3-(morpholino)propyl]-N-[(ethylamino)carbonyl]-ergoline-8-carboxamide]","activity/potency at 5-HT2B receptor in radioactive binding assay, compared with cabergoline",[1],not significantly less active
same,5-HT2B agonism (type of agonist),[2],full agonists
"CCNC(=O)N(CCCN(C)C)C(=O)[C@@H]1C[C@@H]2c3cccc4c3c(cn4C)C[C@H]2N(C)C1 [Compound 9, 1,6-Dimethylcabergoline]",D4 agonism (type of agonist),[3],full D4 agonist
same,5-HT2B antagonism against serotonin,[4],potent antagonists
same,EC50,[5],1.4 nM
same,Emax,[5],50%
same,D2 agonism (type of agonist),[5]; result in words,potent but partial D2 agonist
same,5-HT2B agonism (type of agonist),[2],no agonism
"CN(C)CCCNC(=O)[C@@H]1C[C@@H]2c3cccc4c3c(cn4C)C[C@H]2N(C)C1 [Compound 14, (5R,8R,10R)-1,6-Dimethyl-N-[3-(dimethylamino)propyl]ergoline-8-carboxamide]",5-HT2B antagonism against serotonin,[4],potent antagonists
same,Emax,[2]; read-out: 5-HT2B Emax,< 12%
same,5-HT2B agonism (type of agonist),[2],minimal to no agonism
COC(OC)[C@@H]1C[C@@H]2c3cccc4c3c(cn4C)C[C@H]2N(C)C1 [Compound 15],5-HT2B antagonism against serotonin,[4],potent antagonists
same,5-HT2B agonism (type of agonist),[2],no agonism
C=CCN1C[C@H](C(=O)N(CCCN(C)C)C(=O)NCC)C[C@@H]2c3cccc4[nH]cc(c34)C[C@H]21 [cabergoline],anticipatory level changes prior to copulation (anticipatory desire),[6],increased
same,ejaculation latencies vs controls,[6],shorter ejaculation latencies
same,intromissions before ejaculation vs controls,[6],more intromissions
same,number of ejaculations vs controls,[6],significantly more times
same,5-HT2B agonism (type of agonist),[2],full agonists
